# Measured values taken from patent US9801840B1, “Pharmaceutical composition and use thereof” (priority 2016, dated 2017).
# Experiments:
# cdc42 = assay: Rho GTPase activity assay (GST pull-down, Western blot), Huh7 cell lines; assay type: cell-based; details: Huh7, 6 hours
# Protocol: Huh7 cell lines were cultured by the method described in Example 2 and treated with 0.1% DMSO (control) or CA for 6 hours and then collected. After the Huh7 cell lines were lysed, the cell lysates (500 μg) were combined with purified GST fusion protein which has conjugated with Rac1, RhoA, or cdc42 binding domain (PAK-PBD for Rac1 and cdc42, Raf-RBD for RhoA) and incubated at 4° C. overnight. The immune-complex was precipitated and then centrifuged at 14,000 rpm for 30 mins. The samples were washed with RIPA buffer solution, boiled with SDS sample buffer solution, and analyzed by Western blot analysis.
# HepG2 cell lines [1] = assay: Cytotoxicity assay (MTT); assay type: cell-based; details: HepG2, 24 hours
# Protocol: (§1) The HCC cell lines: Huh7, HepG2 and Hep3B were obtained from Japanese Collection of Research Bioresources (National Institute of Health Sciences; Japan, JCRB) and maintained in Dulbecco's Modified Eagle's Medium-High Glucose (Invitrogen) medium with 10% fetal bovine serum (FBS), 2 mM L-glutamine (Invitrogen), and 100 μg/mL penicillin-streptomycin (Invitrogen). Cells were cultured in a humidified atmosphere in 5% CO2 at 37° C. A well-known cytotoxicity assays in the art, for example, the assay described by Wang et al. can be performed to study the cytotoxicity of the pharmaceutical composition provided by the present invention. […] The number of viable cells was determined by MTT assay.
# Hep3B cell lines [2] = assay: Cytotoxicity assay (MTT); assay type: cell-based; details: 24 hours
# Protocol: as §1
# Cytotoxicity assay (MTT) = assay type: cell-based; details: human, Huh7 cells (HCC cell line), Huh7, 24 hours
# Protocol: as §1
# Src = assay: Immunoprecipitation and Western blot analysis, Huh7 cell lines; assay type: cell-based; details: Huh7, 15 mins treatment
# [3] = biological target: T1, VEGFR2 (kinase insert domain receptor, KDR) (Homo sapiens, UniProt P35968); assay: ADP-Glo kinase activity assay; assay type: biochemical; details: 10 μM ATP, read-out: concentration inhibiting VEGFR2 activity by 50%
# T1 construct: purchased Promega V2681
# T1 sequence (P35968 20-1356): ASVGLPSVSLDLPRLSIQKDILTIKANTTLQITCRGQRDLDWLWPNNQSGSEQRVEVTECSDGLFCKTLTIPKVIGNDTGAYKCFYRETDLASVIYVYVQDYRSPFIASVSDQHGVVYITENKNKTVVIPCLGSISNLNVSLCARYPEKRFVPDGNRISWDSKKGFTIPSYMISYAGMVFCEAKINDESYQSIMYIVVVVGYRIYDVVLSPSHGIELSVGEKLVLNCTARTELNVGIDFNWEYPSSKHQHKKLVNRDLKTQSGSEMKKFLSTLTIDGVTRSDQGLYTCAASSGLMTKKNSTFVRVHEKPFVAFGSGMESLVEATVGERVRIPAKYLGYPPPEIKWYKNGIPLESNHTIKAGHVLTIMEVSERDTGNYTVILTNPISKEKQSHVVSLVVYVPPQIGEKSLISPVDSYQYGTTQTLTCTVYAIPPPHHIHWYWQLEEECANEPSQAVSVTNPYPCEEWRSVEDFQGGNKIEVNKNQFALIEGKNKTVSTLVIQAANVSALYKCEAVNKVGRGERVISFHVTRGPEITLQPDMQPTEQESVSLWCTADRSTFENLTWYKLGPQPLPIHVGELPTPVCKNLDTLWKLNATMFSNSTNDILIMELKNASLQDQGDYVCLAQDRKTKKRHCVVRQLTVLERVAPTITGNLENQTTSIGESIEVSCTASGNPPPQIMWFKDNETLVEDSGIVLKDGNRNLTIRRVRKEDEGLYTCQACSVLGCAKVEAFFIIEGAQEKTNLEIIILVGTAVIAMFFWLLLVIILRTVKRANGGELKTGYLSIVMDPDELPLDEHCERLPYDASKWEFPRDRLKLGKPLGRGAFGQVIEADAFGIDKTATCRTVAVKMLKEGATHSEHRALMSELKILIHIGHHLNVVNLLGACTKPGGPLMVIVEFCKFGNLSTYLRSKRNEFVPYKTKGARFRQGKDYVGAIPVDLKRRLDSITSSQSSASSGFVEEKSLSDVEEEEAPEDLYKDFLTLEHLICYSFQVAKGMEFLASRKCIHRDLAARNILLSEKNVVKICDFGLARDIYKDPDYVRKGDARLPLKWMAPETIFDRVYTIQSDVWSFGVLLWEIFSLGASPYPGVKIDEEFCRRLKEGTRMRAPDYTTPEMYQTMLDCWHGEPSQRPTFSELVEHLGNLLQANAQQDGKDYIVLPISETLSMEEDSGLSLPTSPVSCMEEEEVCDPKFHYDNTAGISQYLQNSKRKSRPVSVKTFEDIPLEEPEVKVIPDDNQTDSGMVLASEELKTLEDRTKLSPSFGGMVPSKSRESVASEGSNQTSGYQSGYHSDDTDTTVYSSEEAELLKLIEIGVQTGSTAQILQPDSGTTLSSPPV
# Protocol: Briefly, CA was first diluted with a kinase reaction buffer solution at a 1:2 dilution ratio. Three nanograms of kinase insert domain receptor (KDR, #V2681, Promega) were added and incubated for 10 mins. Then, 0.1 μg/μL substrate and 10 μM ATP were added and incubated for 1 hour at room temperature. Next, 25 μL of ADP-Glo reagent was added to the mixture and incubated at room temperature for 40 mins. Finally, 50 μL of a kinase detection reagent was added to introduce luciferase and samples were measured.
# Huh7 cell lines [4] = assay: Antitumor response in vivo, Huh7 xenograft; set-up: species or system mice; details: 5 mg/kg/day intraperitoneal
# Protocol: All animal experiments were conducted according to the guidelines approved by the Institutional Animal Care and Use Committees of the College of Medicine, National Taiwan University and National Taiwan Normal University. The study was approved by the Animal Care and Use Committees of the College of Medicine, National Taiwan University and National Taiwan Normal University. Male NOD/SCID mice (4-6 weeks old) (obtained from BioLASCO Taiwan Co., Ltd) were housed into individually-ventilated cages with free access to food and drinking water. […] The tumor volume was calculated by the following equation: tumor volume(mm^3)=(length [mm])×(width [mm])^2×0.5.
# VEGFR2 = assay: Immunoprecipitation and Western blot analysis, Huh7 cell lines; assay type: cell-based; details: Huh7, 15 mins treatment, vs control
# Protocol: The lysates were then sonicated and centrifuged. The supernatant was kept and incubated with anti-VEGFR1 antibody, anti-VEGFR2 antibody, and anti-VEGFR3 antibody (Santa Cruz Biotechnology, Inc.) overnight at 4° C. The immune-complexes were washed and eluted, and then analyzed by Western blotting.
# Huh7 cell lines [5] = assay: Confocal microscopy analysis of p-FAK (Tyr397) and F-actin; assay type: cell-based; details: Huh7, 6 hour
# Protocol: Huh7 cell lines cultured by the method described in Example 2 were seeded on a 22×22 cover slip and treated with 0.1% DMSO (control) or CA for 6 hour. The cells were washed, fixed, and permeabilized with 0.25% Triton X-100 for 10 mins. Next, the cover slips were incubated with p-FAK (Tyr397) primary antibody overnight, and then stained with Alexa488 (anti-rabbit) and Alexa568-phallodin (20 mU/mL) for 1 hour in darkness. Finally, the samples were counterstained for nuclei with DAPI (10 ng/mL) for 10 mins. The images were captured and analyzed using the Leica TCS SP5 Spectral Confocal System. The actin filament intensity was measured by ImageJ (NIH) and calculated by the following formula described by Bennett et al. (2013): Corrected total cell fluorescence (CTCF)=Integrated Density−(Area of selected cell×Mean fluorescence of background readings).
# p-FAK (Tyr397) = assay: Immunohistochemistry of excised xenograft tumors; assay type: in vivo; details: HCC xenograft mice, CA 5 mg/kg/day
# Source text: (§2) Tumor samples obtained from experiment 4-1 were fixed in 10% […], embedded in paraffin, and sectioned. The tissue sections were then subjected to immunohistochemical staining with the Novolink Polymer Detection System (Leica Biosystems). The sections were stained for p-VEGFR2 (Tyr951, Cell Signaling Technology), Ki-67 and p-FAK (Tyr397) (Santa Cruz Biotechnology), and the nuclei were counterstained with hematoxylin.
# p-VEGFR2 (Tyr951) = assay: Immunohistochemistry of excised xenograft tumors; assay type: in vivo; details: HCC xenograft mice, CA 5 mg/kg/day
# Source text: as §2
# Huh7 cell lines [6] = assay: Transwell migration assay; assay type: cell-based
# Protocol: (§3) Then, the cells were seeded into Transwell inserts (8 μm pore; BD Biosciences). The mediums were incubated for 16 hours, and the migrated cells were fixed, stained with crystal violet, and quantified.
# (§4) Except for the compound represented by formula (1), the pharmaceutical composition can further comprises at least one known anticancer agent. […] The software was used to estimate the combination index (CI) and Fa (fraction affected by drugs) and to interpret the combined effect of drugs. CI<1, CI=1, and CI>1 respectively indicate synergistic, additive, and antagonistic effects.
# HepG2 cell lines [7] = assay: Transwell migration assay; assay type: cell-based; details: HepG2, 1-16 μM, 16 hours
# Protocol: as §3, §4
# Hep3B cell lines [8] = assay: Transwell migration assay; assay type: cell-based; details: 1-16 μM, 16 hours
# Protocol: as §3, §4
# FAK (Tyr397) = assay: Immunoprecipitation and Western blot analysis, Huh7 cell lines; assay type: cell-based; details: Huh7, 15 mins treatment
# Huh7 cell lines [9] = assay: G-actin/F-actin activity assay; assay type: cell-based; details: Huh7, 6 hours, vs control
# Protocol: Actin activity assay can be conducted by known methods, for example, the method described in Shum et al. (2011). Briefly, Huh7 cell lines were cultured by the method described in Example 2 and treated with 0.1% DMSO (control) or CA for 6 hours and incubated in stabilizing buffer (1% Triton X-100, 1 μg phalloidin, and protease inhibitor cocktail) at room temperature for 5 mins. Cell lysates were collected, followed by centrifugation at 100,000×g at 37° C. for 1 hour. The supernatant was removed and saved as the G-actin fraction. The pellet was washed twice with PBS and dissolved in dissolving buffer solution (1% Triton X-100, 2% SDS, and protease inhibitor cocktail) by sonication, the mixture was put on ice for 1 h, and saved as the F-actin fraction.
# FAK = details: xenograft model
# Protocol: To study the combinatorial effect of CA and sorafenib, Huh7 cell lines (5×10^6 cells) were suspended in 100 μL of Opti-MEM with matrigel-matrix, and injected subcutaneously into the flanks of each mouse. After one week, the mice were treated with 50 μL DMSO (control) and combined compounds by intraperitoneal injection (n=5 for each group) for 20 days.
# At the end of the experiment, the mice were sacrificed. The tumors were excised, weighed, and fixed for further studies.
smiles,measurement,setting,value
"C[C@H]1[C@H](C)CC[C@]2(C(=O)O)CC[C@]3(C)C(=CC[C@@H]4[C@@]5(C)C[C@@H](O)[C@H](O)C(C)(C)[C@@H]5CC[C@]43C)[C@H]12 [CA, corosolic acid]",IC50,"cdc42; Homo sapiens, Huh-7, read-out: concentration reducing the activity of cdc42 by 50%",2000 nM
same,activated cdc42,cdc42,significantly down-regulated
same,cytotoxicity,HepG2 cell lines [1],lower cytotoxicity
same,cytotoxicity,Hep3B cell lines [2],lower cytotoxicity
same,IC50 at 24 h,Cytotoxicity assay (MTT),50 µM
same,phosphorylation level of Src,Src,down-regulated
same,IC50,[3],~950 nM
same,reduction in tumor mass as compared with the control group,Huh7 cell lines [4]; 21 days,85%
same,volumes of the tumor,Huh7 cell lines [4]; after 21-day treatment,63±19 mm^3
same,phosphorylation level of VEGFR2,VEGFR2,lower
same,co-localization of phosphorylation of FAK (Tyr397) and F-actin on the filopodium,Huh7 cell lines [5],decreases
same,phosphorylation of FAK in tumor (immunohistochemistry),p-FAK (Tyr397),reduced phosphorylation of both VEGFR2 and FAK significantly
same,phosphorylation of VEGFR2 in tumor (immunohistochemistry),p-VEGFR2 (Tyr951),reduced phosphorylation of both VEGFR2 and FAK significantly
same,IC50 cytotoxicity/IC50 migration,Huh7 cell lines [6]; HCC cell lines,≥ 20
same,inhibition of migration,"Huh7 cell lines [6]; Huh7, 1-16 μM, 16 hours",effectively inhibited the migration
same,inhibition of migration,HepG2 cell lines [7],effectively inhibited the migration
same,inhibition of migration,Hep3B cell lines [8],effectively inhibited the migration
same,phosphorylation level of FAK (Tyr397),FAK (Tyr397),down-regulated
same,ratio of F-actin/G-actin (polymer/monomer),Huh7 cell lines [9],reduces
CNC(=O)c1cc(Oc2ccc(NC(=O)Nc3ccc(Cl)c(C(F)(F)F)c3)cc2)ccn1 [sorafenib],phosphorylation level / activation of FAK kinase in the tumor in the mice,FAK,didn't show any inhibitory effect
"C[C@H]1[C@H](C)CC[C@]2(C(=O)O)CC[C@]3(C)C(=CC[C@@H]4[C@@]5(C)CC[C@H](O)C(C)(C)[C@@H]5CC[C@]43C)[C@H]12 [ursolic acid, 3β-hydroxyurs-12-ursen-28-ic acid, reference compound]",inhibitory activity to cell migration (FIG. 2D comparison),"Huh7 cell lines [6]; Huh7, CA vs sorafenib vs ursolic acid",did not show significant inhibitory activity
